Data taken from patent US6384249B1, “Compounds and methods for stabilization of furfural compositions” (Hercules, Inc., priority 2000, dated 2002).
Several values for one entry are separate records, joined by “and”; a condition that tells them apart may be missing. Equal values may be shown once.

Test: Accelerated air oxidation of furfural, Total Acid Number (TAN) by potentiometric titration
Settings: 25 psig air, 300° F., 2 hours
Method: In this example, distilled furfural was treated with prospective stabilizers, over-pressured with 25 psig of air, heated to 300° F., and held at temperature for 2 hours to allow for an accelerated rate of furfural oxidation. Total Acid Number (TAN) titrations were then conducted by potentiometric titration on the treated furfural samples, an untreated (blank), and a sample of the original distilled material (control), which was not heated to 300° F. The acid number, expressed as mg KOH/g, is a measure of the acid generated during air oxidation of furfural. Performance of inhibitors was expressed as a percent inhibition by the following equation: […]

| Structure (SMILES) | % Inhibition @ ppmA (250 ppmA stabilizer) | % Inhibition @ ppmA (500 ppmA stabilizer) | % Inhibition @ ppmA (1000 ppmA stabilizer) | % Inhibition @ ppmA (2000 ppmA stabilizer) |
| --- | --- | --- | --- | --- |
| CCC(C)Nc1ccc(NC(C)CC)cc1 (stereo not shown) [Compound #1] | 69% | 106% and 114% | 88% and 170% | 57% |
| CCC(C)CC(C)Nc1ccc(Nc2ccccc2)cc1 (stereo not shown) [Compound #2] | 15% | 37% | 56% | – |
| CC(C)CC(C)N=C1C=CC(=Nc2ccccc2)C=C1 (stereo not shown) [Compound #4] | 48% | 76% | 95% | – |
| Cc1cc(C(C)(C)C)c(O)c(C(C)(C)C)c1 [Compound #3, 2,6-di-tert-butyl-4-methylphenol] | −10% | −5% | 12% | – |
